The text below walks through data of patent EP1389624A1, “Phosphorous-containing cysteine and serine protease inhibitors” (CEPHALON, INC., priority 1995, dated 1997).

The target in this assay is T1, Calpain I (Homo sapiens, UniProt P07384).
T1 sequence (P07384 1-714): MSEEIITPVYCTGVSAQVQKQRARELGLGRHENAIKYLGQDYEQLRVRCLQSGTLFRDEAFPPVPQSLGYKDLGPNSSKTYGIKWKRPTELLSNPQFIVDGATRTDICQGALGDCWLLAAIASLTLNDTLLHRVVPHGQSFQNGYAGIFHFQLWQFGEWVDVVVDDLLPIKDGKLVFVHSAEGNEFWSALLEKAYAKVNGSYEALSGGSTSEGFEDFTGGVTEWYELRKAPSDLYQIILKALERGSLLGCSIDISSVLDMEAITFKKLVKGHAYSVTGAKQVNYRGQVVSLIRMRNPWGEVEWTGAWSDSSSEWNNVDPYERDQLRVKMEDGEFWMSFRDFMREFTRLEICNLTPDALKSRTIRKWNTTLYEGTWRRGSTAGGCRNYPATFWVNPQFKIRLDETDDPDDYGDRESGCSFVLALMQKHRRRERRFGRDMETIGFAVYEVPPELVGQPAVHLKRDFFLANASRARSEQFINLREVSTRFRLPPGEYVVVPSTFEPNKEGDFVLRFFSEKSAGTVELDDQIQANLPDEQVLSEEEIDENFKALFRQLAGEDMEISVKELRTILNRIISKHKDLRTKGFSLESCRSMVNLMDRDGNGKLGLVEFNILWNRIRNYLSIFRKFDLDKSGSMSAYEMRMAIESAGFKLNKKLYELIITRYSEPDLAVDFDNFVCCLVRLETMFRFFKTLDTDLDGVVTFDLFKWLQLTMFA
T1 sequence (P04632 1-268 partner): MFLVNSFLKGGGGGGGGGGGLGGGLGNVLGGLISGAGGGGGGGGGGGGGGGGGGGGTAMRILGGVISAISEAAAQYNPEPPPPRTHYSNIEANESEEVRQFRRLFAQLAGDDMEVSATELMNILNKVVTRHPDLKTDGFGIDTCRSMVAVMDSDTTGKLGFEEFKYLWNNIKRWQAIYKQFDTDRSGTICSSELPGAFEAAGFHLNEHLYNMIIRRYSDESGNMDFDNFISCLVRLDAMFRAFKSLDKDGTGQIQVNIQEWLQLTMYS
Kind of assay: Inhibition and rate of inactivation of cysteine protease (calpain I) activity, Succ-Leu-Tyr-MNA substrate hydrolysis. The note with it: for kinact/KI: read-out: kobs/I x 10^-3 M^-1s^-1; for inhibition at 0.1 µM: read-out: % Inhib. @ 0.1 uM.

Setting [1] is: apparent second order rate constant of inactivation from reaction progress curves under pseudo-first order conditions, mean of three or more determinations.

Counter-ions that a name gives are not always drawn. Like-named read-outs stand apart in the source and are kept apart here.

Description: To evaluate inhibitory activity, stock solutions (40 times concentrated) of each compound to be tested were prepared in 100% anhydrous DMSO and 5 µl of each inhibitor preparation were aliquoted into each of three wells of a 96 well plate. […] To start the reaction, 20 µl of 50 mM CaCl2 in assay buffer was added to all wells of the plate, excepting three, which were used as background signal baseline controls. Substrate hydrolysis was monitored every 5 minutes for a total of 30 minutes. Substrate hydrolysis in the absence of inhibitor was linear for up to 15 minutes.
Inhibition of calpain I activity was calculated as the percent decrease in the rate of substrate hydrolysis in the presence of inhibitor (vi) relative to the rate in its absence (vo). Comparison between vo and vi was made within the linear range for substrate hydrolysis. […] Apparent second order rate constants were determined from analysis of reaction progress curves under pseudo-first order conditions. Each determination represents the mean of three or more independent single cuvette analyses continually monitored via a Perkin-Elmer LS50B spectrofluorimeter.

With `CC(C)C[C@H](NC(=O)OCc1ccccc1)C(=O)N[C@@H](Cc1ccccc1)C(=O)COP(=O)(OCc1ccccc1)OCc1ccccc1` [Example 34, Dibenzyl (3S)-[3-[(N-Benzyloxycarbonyl-L-leucyl)amino]-2-oxo-4-phenylbutyl] phosphate], the kinact/KI amounted to 100000 M⁻¹ s⁻¹.

Turning to `CC(C)C[C@H](NC(=O)OC(C)(C)C)C(=O)N[C@@H](Cc1ccccc1)C(=O)COP(=O)(OCc1ccccc1)OCc1ccccc1` [Example 35, Dibenzyl (3S)-[3-[(N-t-Butoxycarbonyl-L-leucyl)amino]-2-oxo-4-phenylbutyl] phosphate], the inhibition at 0.1 µM worked out at 100% and the kinact/KI is 242000 M⁻¹ s⁻¹. For the compound `CC(C)CC(NC(=O)C12OC3COC(C)(C)OC3C1OC(C)(C)O2)C(=O)NC(Cc1ccccc1)C(=O)COP(=O)(OCc1ccccc1)OCc1ccccc1` [Example 37, Dibenzyl (3S)-[3-[(N-diisopropylidine-2-keto-L-gulonyl-L-leucyl)amino)-2-oxo-4-phenylbutyl] phosphate], the “kobs/I x 10^-3 M^-1s^-1” value was 113 x 10^-3 M^-1s^-1. For `CC(C)C[C@H](NC(=O)C12OC(CO)C(O)C1OC(C)(C)O2)C(=O)N[C@@H](Cc1ccccc1)C(=O)COP(=O)(OCc1ccccc1)OCc1ccccc1` (stereo partly drawn) [Example 38, Dibenzyl (3S)-[3-[(N-monoisopropylidine-2-keto-L-gulonyl-L-leucyl)amino]-2-oxo-4-phenylbutyl] phosphate], the “kobs/I x 10^-3 M^-1s^-1” value under setting [1] is given as 116 x 10^-3 M^-1s^-1. Take `Cc1ccccc1COP(=O)(OCC(=O)[C@H](Cc1ccccc1)NC(=O)[C@H](CC(C)C)NC(=O)OCc1ccccc1)OCc1ccccc1C` [Example 39, Bis(2-methylbenzyl) (3S)-[3-[(N-Benzyloxycarbonyl-L-leucyl)amino]-2-oxo-4-phenylbutyl] phosphate]: the kinact/KI was determined as 365000 M⁻¹ s⁻¹. On to `CC(C)C[C@H](NC(=O)OCc1ccccc1)C(=O)N[C@@H](Cc1ccccc1)C(=O)COP(=O)(OCc1cccc(Oc2ccccc2)c1)OCc1cccc(Oc2ccccc2)c1` [Example 40, Bis(3-phenoxybenzyl) (3S)-[3-[(N-Benzyloxycarbonyl-L-leucyl)amino]-2-oxo-4-phenylbutyl] phosphate], for which the inhibition at 0.1 µM stood at 53%. On to `CC(C)C[C@H](NC(=O)OC(C)(C)C)C(=O)N[C@@H](Cc1ccccc1)C(=O)COP(=O)(O)O` [Example 41, Dihydrogen (3S)-[3-[(N-t-Butoxycarbonyl-L-leucyl)amino]-2-oxo-4-phenylbutyl] phosphate], for which the inhibition at 0.1 µM was 7% and the kinact/KI is under 20000 M⁻¹ s⁻¹. For the compound `COP(=O)(OC)OCC(=O)[C@H](Cc1ccccc1)NC(=O)[C@H](CC(C)C)NC(=O)OCc1ccccc1` [Example 42, Dimethyl (3S)-[3-[(N-Benzyloxycarbonyl-L-leucyl)amino]-2-oxo-4-phenylbutyl] phosphate], the kinact/KI came out at 20000 M⁻¹ s⁻¹.

For `CCCCOP(=O)(OCCCC)OCC(=O)[C@H](Cc1ccccc1)NC(=O)[C@H](CC(C)C)NC(=O)OCc1ccccc1` [Example 43, Dibutyl (3S)-[3-[(N-Benzyloxycarbonyl-L-leucyl)amino]-2-oxo-4-phenylbutyl] phosphate], the kinact/KI is 40000 M⁻¹ s⁻¹. The same measure, in the same setting: the same measure for `CCCCC(CC)COP(=O)(OCC(=O)[C@H](Cc1ccccc1)NC(=O)[C@H](CC(C)C)NC(=O)OCc1ccccc1)OCC(CC)CCCC` (stereo partly drawn) [Example 44, Bis(2-ethylhexyl) (3S)-[3-[(N-Benzyloxycarbonyl-L-leucyl)amino]-2-oxo-4-phenylbutyl] phosphate]: 1000 M⁻¹ s⁻¹. For the compound `CC(C)C[C@H](NC(=O)OC(C)(C)C)C(=O)N[C@@H](Cc1ccccc1)C(=O)COP(=O)(OCCC1CCCCC1)OCCC1CCCCC1` [Example 45, Bis(2-cyclohexylethyl) (3S)-[3-[(N-t-Butoxycarbonyl-L-leucyl)amino]-2-oxo-4-phenylbutyl] phosphate], the inhibition at 0.1 µM came out at 28%.

Consider `CC(C)C[C@H](NC(=O)OCc1ccccc1)C(=O)N[C@@H](Cc1ccccc1)C(=O)COP(=O)(OCCc1ccccc1)OCCc1ccccc1` [Example 46, Diphenethyl (3S)-[3-[(N-Benzyloxycarbonyl-L-leucyl)amino]-2-oxo-4-phenylbutyl] phosphate], for which the inhibition at 0.1 µM came to 99% and the kinact/KI is 380000 M⁻¹ s⁻¹.

As for `CC(C)C[C@H](NC(=O)OCc1ccccc1)C(=O)N[C@@H](Cc1ccccc1)C(=O)COP1(=O)OCC(OCc2ccccc2)CO1` (stereo partly shown) [Example 47], the inhibition at 0.1 µM turned out to be 47%.

`CC(C)C[C@H](NC(=O)OCc1ccccc1)C(=O)N[C@@H](Cc1ccccc1)C(=O)COP(=O)(OCc1ccccc1)c1ccccc1` (stereo partly drawn) [Example 49, Benzyl (3S)-[3-[(N-Benzyloxycarbonyl-L-leucyl)amino]-2-oxo-4-phenylbutyl]phenylphosphonate]: the inhibition at 0.1 µM is 90%.

With `CC(C)C[C@H](NC(=O)OCc1ccccc1)C(=O)N[C@@H](Cc1ccccc1)C(=O)COP(=O)(OCCN1CCOCC1)c1ccccc1` (stereo partly drawn) [Example 50, 2-(Morpholin-4-yl)ethyl (3S)-[3-[(N-benzyloxycarbonyl-L-leucyl)amino]-2-oxo-4-phenylbutyl] phenylphosphonate hydrochloride], the kinact/KI was found to be 70000 M⁻¹ s⁻¹. On the same count and under the same terms, the result for `CC(C)C[C@H](NC(=O)OCc1ccccc1)C(=O)N[C@@H](Cc1ccccc1)C(=O)COP(=O)(OCCN1CCCC1=O)c1ccccc1` (stereo partly drawn) [Example 51, (3S)-[3-[(N-Benzyloxycarbonyl-L-leucyl)amino]-2-oxo-4-phenylbutyl] 2-(2-oxopyrrolidin-1-yl)ethyl phenylphosphonate] reads 26000 M⁻¹ s⁻¹; that for `CC(C)C[C@H](NC(=O)OCc1ccccc1)C(=O)N[C@@H](Cc1ccccc1)C(=O)COP(C)(C)=O` [Example 52, (3S)-[3-[(N-Benzyloxycarbonyl-L-leucyl)amino]-2-oxo-4-phenylbutyl] dimethylphosphinate], 6000 M⁻¹ s⁻¹. Consider `CCCCCP(=O)(CCCCC)OCC(=O)[C@H](Cc1ccccc1)NC(=O)[C@H](CC(C)C)NC(=O)OCc1ccccc1` [Example 53, (3S)-[3-[(N-Benzyloxycarbonyl-L-leucyl)amino]-2-oxo-4-phenylbutyl] dipentylphosphinate], for which the inhibition at 0.1 µM came out at 19%.

As to `CC(C)C[C@H](NC(=O)OCc1ccccc1)C(=O)N[C@@H](Cc1ccccc1)C(=O)COP(=O)(CCc1ccccc1)CCc1ccccc1` [Example 54, (3S)-[3-[(N-Benzyloxycarbonyl-L-leucyl)amino]-2-oxo-4-phenylbutyl] bis(2-phenylethyl)phosphinate], the inhibition at 0.1 µM turned out to be 15% and the kinact/KI was determined as 8000 M⁻¹ s⁻¹.

Take `Cc1ccccc1P(=O)(OCC(=O)[C@H](Cc1ccccc1)NC(=O)[C@H](CC(C)C)NC(=O)OCc1ccccc1)c1ccccc1C` [Example 55, (3S)-[3-[(N-Benzyloxycarbonyl-L-leucyl)amino]-2-oxo-4-phenylbutyl] bis(2-methylphenyl)phosphinate]: the kinact/KI came out at 31000 M⁻¹ s⁻¹. With `Cc1ccccc1P(=O)(OCC(=O)[C@H](Cc1ccccc1)NC(=O)[C@H](CC(C)C)NC(=O)OC(C)(C)C)c1ccccc1C` [Example 56, (3S)-[3-[(N-t-Butoxycarbonyl-L-leucyl)amino]-2-oxo-4-phenylbutyl] bis(2-methylphenyl)phosphinate], the kinact/KI came out at 22000 M⁻¹ s⁻¹.

Turning to `COc1ccc(P(=O)(OCC(=O)[C@H](Cc2ccccc2)NC(=O)[C@H](CC(C)C)NC(=O)OCc2ccccc2)c2ccc(OC)cc2)cc1` [Example 57, (3S)-[3-[(N-Benzyloxycarbonyl-L-leucyl)amino]-2-oxo-4-phenylbutyl] bis(4-methoxyphenyl)phosphinate], the inhibition at 0.1 µM amounted to 85% and the kinact/KI was determined as 85000 M⁻¹ s⁻¹.

With `COc1ccccc1P(=O)(OCC(=O)[C@H](Cc1ccccc1)NC(=O)[C@H](CC(C)C)NC(=O)OCc1ccccc1)c1ccccc1` (stereo partly drawn) [Example 58, (3S)-[3-[(N-Benzyloxycarbonyl-L-leucyl)amino]-2-oxo-4-phenylbutyl] (2-methoxyphenyl)(phenyl)phosphinate], the kinact/KI turned out to be 150000 M⁻¹ s⁻¹. Regarding `COc1cccc(P(=O)(OCC(=O)[C@H](Cc2ccccc2)NC(=O)[C@H](CC(C)C)NC(=O)OCc2ccccc2)c2ccccc2)c1` (stereo partly drawn) [Example 59, (3S)-[3-[(N-Benzyloxycarbonyl-L-leucyl)amino]-2-oxo-4-phenylbutyl] (3-methoxylphenyl)(phenyl)phosphinate], the kinact/KI was determined as 163000 M⁻¹ s⁻¹. As to `CCP(=O)(OCC(=O)[C@H](Cc1ccccc1)NC(=O)[C@H](CC(C)C)NC(=O)OCc1ccccc1)c1ccccc1` (stereo partly drawn) [Example 60, (3S)-[3-[(N-Benzyloxycarbonyl-L-leucyl)amino]-2-oxo-4-phenylbutyl] (ethyl) (phenyl)phosphinate], the inhibition at 0.1 µM is 51%. In addition, the “kobs/I x 10^-3 M^-1s^-1” value under setting [1] was 6 x 10^-3 M^-1s^-1.
